Assay results taken from article PMC9377007, “An Unexpected Deuterium-Induced Metabolic Switch in Doxophylline” (ACS Medicinal Chemistry Letters, 2022).

What was measured:
[1] = tested on: P. aeruginosa-induced lung injury; experiment: Pseudomonas aeruginosa-induced lung injury model; assay type: in vivo; conditions: P. aeruginosa-treated mice; for MPO activity in lungs / apoptosis in lung tissue, TUNEL assay / collagen deposition (Masson's trichrome) / histological examination by H&E staining / immunohistochemistry of PAR / immunohistochemistry of nitrotyrosine / total BAL cellularity: 80 mg/kg os daily for 7 days; for lung edema, ratio of wet to dry weight of lung tissue: 80 mg/kg os daily, day 7, versus vehicle
Description: Lung edema at day 7 was measured as a ratio of wet to dry weight of excised lung tissue (Figure 7c).
Figure 7 Model of pulmonary fibrosis induced by P. aeruginosa. (a) Representative scheme of P. aeruginosa-induced lung injury model. (b) Total BAL cellularity of sham and Pseudomonas-treated mice (treated or not with 80 mg/kg doxophylline, d4-doxophylline, or d7-doxophylline). Results are reported as mean ± SEM of 10 mice for all groups. (c) Wet/dry lung weight ratio of sham and Pseudomonas-treated mice (treated or not with 80 mg/kg doxophylline, d4-doxophylline, or d7-doxophylline). Results are reported as mean ± SEM of 10 mice for all groups. (d) MPO activity in lungs of sham and Pseudomonas-treated mice (treated or not with 80 mg/kg doxophylline, d4-doxophylline, or d7-doxophylline). Results are reported as mean ± SEM of 10 mice for all groups. (e) Representative images of H&E staining of sham and Pseudomonas-treated mice (treated or not with 80 mg/doxophylline, d4-doxophylline, or d7-doxophylline). (f) Representative images of Masson’s trichrome staining of sham and Pseudomonas-treated mice (treated or not with 80 mg/doxophylline, d4-doxophylline and d7-doxophylline). p values: *, p < 0.05; **, p < 0.01; ***, p < 0.001; ****, p < 0.0001. […]
experiments were performed following the new regulations of USA (Animal Welfare Assurance No A5594 - 01), Europe (EU Directive 2010/63) , Italy (D.Lgs 2014/26) and the ARRIVE guidelines.
Tryptic soya agar beads laden with PA were produced as described. The mucoid PA strain NH57388A, was utilized. NH57388A-laden agar beads were prepared the day before inoculation, stored overnight at 4 °C, suspended in sterile PBS to deliver approximately 1 Å~ 106 CFU in 50 μ l per mouse. The inoculation dose […]
Trans-tracheal instillation of beads.
Mice were anaesthetized with inhaled isoflurane delivered initially in an anaesthetic box until unconscious, transferred to a surgical board and maintained under anesthesia with isoflurane via nose cone. The ventral cervical region was sterilized and 1-cm midline skin incision made just cranial to the thoracic inlet. The trachea was visualized by blunt dissection. Traction on the lower jaw was used to extend and straighten the trachea and a 22G intravenous catheter (BD Biosciences) used to cannulate the trachea. A 1-ml syringe, pre-filled with beads suspended in PBS, was attached to the cannuale. The cannulae and syringe were left in-situ for 5-seconds following depression of the plunger, followed by slow withdrawal. The animal was elevated head up to 45- […]
intrapulmonary bead instillation. If evidence of respiratory distress (rapid or labored respiration/ gasping) occurred during the procedure anesthesia was rapidly reversed and oxygen alone administered via nose cone.
The incision was closed with surgical staples. Buprenorphine analgesia was administered subcutaneously post-operatively. Animals were weighed and scored clinically daily. Experiments were terminated at 2-weeks post-inoculation via anesthetic overdose.
Mice were randomly allocated into the following groups. PSEUDOMONAS group: mice were subjected to pseudomonas-induced lung injury (n = 10); PSEUDOMONAS group + doxophylline: Identical to the pseudomonas + vehicle group but were treated daily with doxophylline xo (80 mg/kg os) 1 h after pseudomonas instillation and continued daily for 7 days (n = 10); PSEUDOMONAS group + d4- doxophylline:
Identical to the pseudomonas + vehicle group but were treated daily with doxophylline deuterated d4 (80 mg/kg os) 1 h after pseudomonas instillation and continued daily for 7 days ( n = 10); PSEUDOMONAS group + d7- doxophylline: Identical to the pseudomonas + vehicle group but were treated daily with doxophylline deuterated d7 (80 mg/kg os) 1 h after pseudomonas instillation and continued daily for 7 days (n = 10); SHAM group: mice will receive the vehicle administration daily for 7 days ([…]); SHAM + doxophylline group: […]

[2] = Comparative pharmacokinetic study, single-dose administration in mice; assay type: in vivo; conditions: for AUC(0-t) / Cmax at 24 h / clearance at 24 h / half-life at 24 h / CL/F at 24 h: male, CD1, mouse, plasma, single dose; for decrease of the area under the curve (AUC) versus doxophylline: oral administration
Description: A comparative pharmacokinetic study was then performed by evaluating the plasma concentration profiles of doxophylline and its deuterated analogues after intravenous and oral single-dose administration in mice and minipigs. […] Since the deuterium kinetic isotope effect is often affected by interspecies variability,[28] a PK study was also performed in minipigs. […] A total of 96 CD1 male mice, approximately 6 weeks old and with a body weight of approximately 30 g, were purchased from Envigo RMS srl, (San Pietro al Natisone, UD, Italy). Four males Göttingen minipigs approximately 4-5 months old and weighing 9-11 Kg were purchased from Ellegaard Göttingen Minipigs (Dalmose, Denmark). Protocol for drug administration and blood sampling. Mice. Blood samples were collected under light isoflurane anaesthesia from the sublingual vein at the following time points (n=3): pre-dose and 5, 15, 30 minutes, 1, 2, 4, 8 and 24 hours after i.v. dosing (20 mg/Kg, dose volume 5 mL/Kg) and pre-dose and 15, 30 minutes, 1, 2, 4, 8 and 24 hours after oral gavage dosing (80 mg/Kg, dose volume 5 mL/Kg). Each animal was sampled on each day at a maximum of two alternating time points. Samples were transferred into tubes containing K3EDTA as anticoagulant, centrifuged, and stored at -80 °C. Minipig. Blood samples were collected from the jugular vein at the following time points (n=4): pre-dose and 5, 15, 30 minutes, 1, 2, 4, 8 and 24 hours after i.v. dosing (5 mg/Kg, dose volume 1 mL/Kg) and pre-dose and 15, 30 minutes, 1, 2, 4, 8 and 24 hours after oral gavage dosing (20 mg/Kg, dose volume 4 mL/Kg). Samples were transferred into tubes containing K3EDTA as anticoagulant, centrifuged, and stored at -80 °C. Sample preparation for HPLC-MS analysis. A volume of 50 µL of caffeine solution (1 mg/L in water-methanol 1:1) were added to plasma sample aliquots (50 µL); after the addition of the precipitant solution (100 µL of 10% ice-cold trichloroacetic acid in water), samples were centrifuged at 13,000 rpm for ten minutes and the supernatant injected onto the HPLC system (see supporting information for chromatographic conditions). If the levels of analytes were over range, plasma samples were preventively diluted with blank plasma. Data analysis. Quantification of doxophylline and its deuterated analogues d4 and d7 as well as their main metabolites, 7- theophylline acetic acid (T-COOH), 7-hydroxyethyl theophylline (Eto) and theophylline, was performed by using the calibration curves obtained with the corresponding working standards of the analytes and using caffeine as internal standard. The pharmacokinetic parameters for doxophylline and its deuterated analogues were calculated by plotting the plasma concentration curves versus time obtained from the average values of three animals, using PK Solver 2.0.1 S7

Row | AUC(0-t) ([2]; intravenous, 20 mg/kg) [ng·h/mL] | Cmax at 24 h ([2]; intravenous, 20 mg/kg) [ng/mL] | clearance at 24 h ([2]; intravenous, 20 mg/kg) [mL/min/kg] | half-life at 24 h ([2]; intravenous, 20 mg/kg) [h] | AUC(0-t) ([2]; oral, 80 mg/kg) [ng·h/mL] | CL/F at 24 h ([2]; oral, 80 mg/kg) [mL/min/kg] | Cmax at 24 h ([2]; oral, 80 mg/kg) [ng/mL] | half-life at 24 h ([2]; oral, 80 mg/kg) [h] | decrease of the area under the curve (AUC) versus doxophylline [2] [%] | SMILES | MPO activity in lungs [1] | apoptosis in lung tissue, TUNEL assay [1] | collagen deposition (Masson's trichrome) [1] | histological examination by H&E staining [1] | immunohistochemistry of PAR [1] | immunohistochemistry of nitrotyrosine [1] | total BAL cellularity [1] | lung edema, ratio of wet to dry weight of lung tissue [1]
1 | 5410 | 12300 | 61.7 | 1.5 | 31400 | 41.7 | 16800 | 1.7 | 44 | [2H]C1([2H])OC(Cn2cnc3c2c(=O)n(C)c(=O)n3C)OC1([2H])[2H] [d4-doxophylline] | lesser nonsignificant effect | did not have any effect | lesser or no effect | reduction of the inflammatory interstitial infiltrate | lesser or no effect | lesser or no effect | increased total BAL cellularity | –
2 | 4920 | 10700 | 68.3 | 1 | 33600 | 40 | 19200 | 2.1 | 40 | [2H]C1([2H])OC([2H])(C([2H])([2H])n2cnc3c2c(=O)n(C)c(=O)n3C)OC1([2H])[2H] [d7-doxophylline] | significantly reduced | reverted | effect | reduction of the inflammatory interstitial infiltrate | effect | effect | significantly reduced | considerably decreased
3 | 6730 | 15500 | 48.3 | 1.1 | 55900 | 23.3 | 18700 | 1.6 | – | Cn1c(=O)c2c(ncn2CC2OCCO2)n(C)c1=O [doxophylline] | significantly reduced | reverted | effect | reduction of the inflammatory interstitial infiltrate | effect | effect | significantly reduced | considerably decreased
